{
  "source": "patent US10568868B2",
  "about": "“Methods and compositions for treating metabolic reprogramming disorders” (THE JOHNS HOPKINS UNIVERSITY, priority 2015, dated 2020)",
  "key": {"mouse model of asthma": {"test_system": "mouse model of asthma", "test": "Mouse model of asthma (House Dust Mite antigen sensitization and rechallenge)", "format": "in vivo, mice", "conditions": "treated upon intratracheal rechallenge", "procedure": "Mice were sensitized to House Dust Mite antigen (HDM) in the absence of drug. Upon intratracheal rechallenge the mice were treated with vehicle or 25."}, "Neuromyelitis Optica": {"test_system": "Neuromyelitis Optica", "test": "Neuromyelitis optica model (adoptive transfer of auto-reactive T cells)", "parameters": "species or system mice", "conditions": "mouse, in vivo", "procedure": "Auto-reactive T cells were adoptively transferred into mice treated with PBS or 25 and mean paralysis scores were measured."}, "EAE": {"test_system": "EAE", "test": "Multiple sclerosis model (EAE, C57BL/6+MOG35-55)", "format": "in vivo, mice", "procedure": "FIG. 21A and FIG. 21B show the targeting of glutamine metabolism in multiple sclerosis. Animals were immunized for EAE (C57BL/6+MOG35-55). Mice were treated with vehicle or 25 either q.d. from the day of immunization (day 0, left), or b.d. from the time of disease onset (EAE disease score≥1, right)."}, "4T1-Luc tumor cells": {"test_system": "4T1-Luc tumor cells", "test": "4T1-Luc mammary tumor model: myeloid cells, TAM and fibrocytes by flow cytometry", "format": "in vivo, BALB/c mice", "conditions": "1 mg/kg daily from day 7 to day 17", "procedure": "4T1-Luc tumor cells (0.1 million) were injected into the mammary fat pads of 8-week-old female BALB/c mice. Mice received vehicle (PBS) or 1 mg/kg 25 daily from day 7 to day 17. Anti-PD1 antibody (5 mg/Kg) was administered i.p. on day 5, 8, 12 and 17. Percentages of myeloid-derived suppressor cell (MDSC) from circulating blood were monitored on day 6, 9 and 17 by flow cytometry with CD11b and Ly6C/Ly6G. Granulocytic MDSC (G-MDSC): CD11b+ Ly6g+ Ly6c low Monocytic MDSC (Mo-MDSC): CD11b+ Ly6G-Ly6c Hi.\n4T1-Luc tumor cells (0.2 million) were injected into the mammary fat pads of 8-week-old female BALB/c mice. Mice received vehicle (PBS) or 1 mg/kg compound 25 daily from day 7 to day 17. Anti-PD1 antibody (5 mg/Kg) was administered on day 5, 8, 12 and 17. Tumors were evaluated for tumor infiltrating cells on day 21. Cells were seeded on plates and golgi plug 200 ul were added to inhibit cytokine secretion for overnight (no additional stimulation). Tumor associated macrophages markers: Live/CD45+/CD11b+/F4-80+/CD8− for flow cytometry analysis. Macrophages derived from tumor. The cells were incubated with Golgi plug o.n. w/o stim. TAM: Live/CD45+/CD11b+/F4-80+/CD8−.\n4T1-Luc tumor cells (0.1 million) were injected into the mammary fat pads of 8-week-old female BALB/c mice. Mice received vehicle (PBS) or 1 mg/kg 25 daily from day 7 to day 17. Anti-PD1 antibody (5 mg/Kg) was administered on day 5, 8, 12 and 17. Tumors were evaluated for tumor infiltrating cells on day 21. Fibrocytes markers: CollagenI+CD11b+CD45+ live were used for flow cytometry analysis."}, "[1]": {"conditions": "human microsomes"}, "[2]": {"conditions": "pig microsomes"}},
  "note": "Read-outs that look alike come from different tables or passages of the source.",
  "data": [
    {"smiles": "CCOC(=O)[C@H](CCC(=O)C=[N+]=[N-])NC(=O)[C@@H](N)CC(C)C", "note": "[Compound 25]", "values": [
      {"measurement": "levels of HDM specific IgE", "setting": "mouse model of asthma", "value": "reduced"},
      {"measurement": "lung pathology", "setting": "mouse model of asthma", "value": "inhibited pathology"},
      {"measurement": "recruitment/generation of Th2 cells", "setting": "mouse model of asthma", "value": "inhibited"},
      {"measurement": "mean paralysis scores", "setting": "Neuromyelitis Optica", "value": "unexpected effectiveness"},
      {"measurement": "EAE disease, treatment", "setting": "EAE; b.d. from the time of disease onset (EAE disease score≥1)", "value": "unexpected effectiveness"},
      {"measurement": "EAE disease, prevention", "setting": "EAE; q.d. from the day of immunization (day 0)", "value": "unexpected effectiveness"},
      {"measurement": "CD11b+ cells and G-MDSCs in circulating blood", "setting": "4T1-Luc tumor cells; anti-PD1 antibody also given", "value": "reduced CD11b+ cells and G-MDSCs"},
      {"measurement": "TNF alpha in tumor associated macrophages", "setting": "4T1-Luc tumor cells; tumors evaluated day 21", "value": "increased TNF alpha"},
      {"measurement": "tumor infiltrating fibrocytes", "setting": "4T1-Luc tumor cells; tumors evaluated day 21", "value": "reduced fibrocytes"},
      {"measurement": "liver microsomal stability", "setting": "[1]", "value": "moderate-high stability"},
      {"measurement": "liver microsomal stability", "setting": "[2]", "value": "moderate-high stability"}
    ]}
  ]
}
